US20110230431A1, “FOSFOMYCIN/TOBRAMYCIN COMBINATIONS FOR THE TREATMENT AND PREVENTION OF OPHTHALMIC, OTOLOGICAL AND DERMATOLOGICAL INFECTIONS” (Gilead Sciences, Inc., priority 2008, published 2011)
Like-named read-outs stand apart in the source and are kept apart here.

Experiments:
P. aeruginosa [1] = assay: MIC by agar plate dilution method (CLSI); format: cell-based, Pseudomonas aeruginosa; conditions: Pseudomonas aeruginosa, read-out: MIC
Source text: (§1) P. aeruginosa strains isolated from patients with cystic fibrosis (CF) were obtained from Children's Hospital and Regional Medical Center (Seattle, Wash.). Clinical isolates of Escherichia coli and Staphylococcus aureus were obtained from The Jones Group Laboratories (JMI; North Liberty, Iowa) and The Clinical Microbiology Institute (CMI; Wilsonville, Oreg.). P. aeruginosa 27853, S. aureus 29213, and E. coli 25922 served as quality control strains^1 and were obtained from The America Type Culture Collection (ATCC; Manassas, Va.). P. aeruginosa ATCC 27853, a fosfomycin and tobramycin susceptible strain, was used in macromolecular biosynthesis and tobramycin uptake experiments. Stock cultures were maintained at −80° C. in Cation-Adjusted Mueller-Hinton Broth (CAMHB) (Remel; Lenexa, Kans.) supplemented with 20% glycerol (VWR: West Chester, Pa.). Cultures for routine use were grown on tryptic soy agar plates+5% sheeps blood (PML Microbiologicals Inc.; Wilsonville, Oreg.) and stored at 4° C.
(§2) MICs were determined by the agar plate dilution method according to CLSI guidelines (National Committee for Clinical Laboratory Standards. M7-A6. 6th ed. Villanova (Pa.): NCCLS, 2003; M100-S14. Villanova (Pa.): NCCLS, 2004).

[2] = system: Cell Wall Synthesis in P. aeruginosa ATCC 27853; assay: Macromolecular biosynthesis: 3H-N-acetyl-D-glucosamine incorporation; format: cell-based, Pseudomonas aeruginosa; conditions: Pseudomonas aeruginosa, ATCC27853, at 2 h relative to no-drug control, single experiment
Experimental: (§3) Picataway, N.J.) and N-acetyl-D-Glucosamine (^3H-NAG) (GE Healthcare Bio-Sciences), respectively (Baum, E Z, Antimicrob Agents Chernother 2001; 45 (11): 3182-3188). A single colony of P. aeruginosa ATCC 27853 was inoculated into 10 mL of CAMHB and incubated for 16 h, at 37° C., 200 rpm in a shaking water bath. […] At various time points, 100 μl aliquots (triplicate) of culture were removed and added to 100 μl of 20% TCA (VWR) in 96-well flat bottom trays (VWR). Plates were incubated on crushed ice for 60 min to precipitate the incorporated ^3H-precursors. Samples were harvested onto glass fibre filters (GFC) (PerkinElmer; Waltham, Mass.). Filters were washed two times with 35 mL of normal saline to remove unincorporated isotope followed by one wash with 35 mL of 90% ETOH (VWR). Filters were dried under a lamp for 1 h to reduce remaining moisture and then sealed in bags containing 5 mL of scintillation cocktail (Betaplate Scint; PerkinElmer). Counts per minute (CPM) were determined using a Wallac MicroBeta Trilux (PerkinElmer). Mean CPM±standard deviation (SD) were determined for each treatment group. Background counts consisting of a media-only sample were subtracted from the no-drug and antibiotic treatment groups. The percent inhibition of incorporation was determined relative to the no-drug controls. The activities of the three drugs were compared by calculating the time to 50% inhibition (T1/2), and statistical differences at each time point were evaluated by the Analysis of Variance (ANOVA; GraphPad Prisma software package 3.03; GraphPad Software, Inc., San Diego, Calif.). Each curve represents 4 replicate experiments, each time point performed in triplicate.

E. coli [3] = format: cell-based, Escherichia coli
Experimental: (§4) Development of resistance after a single exposure to antibiotic was determined for both clinical and reference isolates of P. aeruginosa, S. aureus, and E. coli. Late Log-phase cultures were centrifuged at 1,400×g at room temperature for 20 min and the cell pellets resuspended in CAMHB. […] The culture plates were incubated at 37° C. for 48 h and the number of colonies on each plate was enumerated manually. The spontaneous mutation frequency (SMF) resulting in antibiotic resistance was calculated by dividing the number of bacteria growing at the defined antibiotic concentration by the number of bacteria in the inoculum (Martinex, J L, Antimicrob Agents Chemother 2000; 44 (1):1771-1777).

E. coli [4] = assay: MIC by agar plate dilution method (CLSI); format: cell-based, Escherichia coli; conditions: Escherichia coli, read-out: MIC
Source text: as §1, §2

P. aeruginosa ATCC 27853 = assay: Time-kill experiments in CAMHB with 2% mucin; format: cell-based, Pseudomonas aeruginosa
Experimental: Time-kill experiments were performed according to a modified CLSI method (National Committee for Clinical Laboratory Standards. M-26A. Villanova (Pa.): NCCLS, 1999). […] Bacterial cultures and antibiotic(s) were incubated at 37° C. in a shaking water bath (200 rpm) and killing activity assessed at 0, 1, 2, 4, 6 and 24 h. Antibiotics that reduced the original inoculum by ≧3-Log10 were considered bactericidal. Antibiotics that reduced the original inoculum by ≦2-Log10 were considered bacteriostatic.

P. aeruginosa [5] = format: cell-based, Pseudomonas aeruginosa
Experimental: as §4

[6] = system: Protein Synthesis in P. aeruginosa ATCC 27853; assay: Macromolecular biosynthesis: 3H-amino acid incorporation; format: cell-based, Pseudomonas aeruginosa
Experimental: as §3

With C[C@@H]1O[C@@H]1P(=O)(O)O [Fosfomycin, fosfomycin disodium] as the molecule, how does the MIC (P. aeruginosa [1]; ATCC27853, P. aeruginosa ATCC 27853) read?
Its MIC is 4 µg/mL.

What about the MIC (P. aeruginosa [1]; P. aeruginosa C002) of the same molecule?
Its MIC is 4 µg/mL.

And the MIC (P. aeruginosa [1]; P. aeruginosa C003)?
The MIC was 16 µg/mL.

What about the MIC (P. aeruginosa [1]; P. aeruginosa C013) of the same molecule?
The MIC was 32 µg/mL.

And the MIC (P. aeruginosa [1]; P. aeruginosa C014)?
Its MIC is 8 µg/mL.

What about the inhibition at 3.2 µg/mL ([2]; 3.2 μg/mL) of the same molecule?
The inhibition at 3.2 µg/mL was 8%.

And the inhibition at 6.4 µg/mL ([2]; 6.4 μg/mL)?
Its inhibition at 6.4 µg/mL is 14%.

And the inhibition at 12.8 µg/mL ([2]; 12.8 μg/mL)?
The inhibition at 12.8 µg/mL was 3%.

What about the “Frequency of Resistance 4× MIC” value (E. coli [3]; E. coli ATCC 25922, 4× MIC) of the same molecule?
The value was 1.9 × 10^−5.

And the “Frequency of Resistance 8× MIC” value (E. coli [3]; E. coli ATCC 25922, 8× MIC)?
Its value is 6.0 × 10^−6.

What about the “Frequency of Resistance 16× MIC” value (E. coli [3]; E. coli ATCC 25922, 16× MIC) of the same molecule?
The value was 2.5 × 10^−5.

And the “Frequency of Resistance 4× MIC” value (E. coli [3]; E. coli C032, 4× MIC)?
Its value is 4.4 × 10^−5.

What about the “Frequency of Resistance 8× MIC” value (E. coli [3]; E. coli C032, 8× MIC) of the same molecule?
Its value is 7.8 × 10^−5.

What about the “Frequency of Resistance 16× MIC” value (E. coli [3]; E. coli C032, 16× MIC) of the same molecule?
Its value is 2.1 × 10^−6.

What about the “Frequency of Resistance 4× MIC” value (E. coli [3]; E. coli C036, 4× MIC) of the same molecule?
Its value is 1.1 × 10^−6.

And the “Frequency of Resistance 8× MIC” value (E. coli [3]; E. coli C036, 8× MIC)?
The value was 2.3 × 10^−6.

And the “Frequency of Resistance 16× MIC” value (E. coli [3]; E. coli C036, 16× MIC)?
The value was 3.4 × 10^−6.

And the “Frequency of Resistance 4× MIC” value (E. coli [3]; E. coli C037, 4× MIC)?
Its value is 1.9 × 10^−6.

And the “Frequency of Resistance 8× MIC” value (E. coli [3]; E. coli C037, 8× MIC)?
Its value is 2.9 × 10^−6.

What about the “Frequency of Resistance 16× MIC” value (E. coli [3]; E. coli C037, 16× MIC) of the same molecule?
The value was 8.6 × 10^−6.

And the “Frequency of Resistance 4× MIC” value (E. coli [3]; E. coli C294, 4× MIC)?
The value was 7.9 × 10^−5.

And the “Frequency of Resistance 8× MIC” value (E. coli [3]; E. coli C294, 8× MIC)?
Its value is 5.4 × 10^−5.

What about the “Frequency of Resistance 16× MIC” value (E. coli [3]; E. coli C294, 16× MIC) of the same molecule?
Its value is 6.3 × 10^−5.

And the MIC (E. coli [4]; ATCC25922, E. coli ATCC 25922)?
Its MIC is 2 µg/mL.

What about the MIC (E. coli [4]; E. coli C032) of the same molecule?
Its MIC is 1 µg/mL.

What about the MIC (E. coli [4]; E. coli C036) of the same molecule?
The MIC was 2 µg/mL.

What about the MIC (E. coli [4]; E. coli C037) of the same molecule?
The MIC was 1 µg/mL.

What about the MIC (E. coli [4]; E. coli C294) of the same molecule?
The MIC was 0.5 µg/mL.

What about the “killing activity at 24 h” value (P. aeruginosa ATCC 27853; 24 h, FT4:1 16 μg/mL, fosfomycin 12.8 μg/mL, tobramycin 3.2 μg/mL, mucin, FIG. 4) of the same molecule?
The value was “re-growth of the bacterial culture”.

What about the killing activity (P. aeruginosa ATCC 27853; FT4:1 at 4×MIC (16 μg/mL), component weights fosfomycin 12.8 μg/mL, tobramycin 3.2 μg/mL, mucin, FIG. 4) of the same molecule?
Its killing activity is “bacteriostatic killing”.

And the “killing activity (bactericidal ≧3-Log10, bacteriostatic ≦2-Log10)” value (P. aeruginosa ATCC 27853; multiples of the MIC, FIG. 1-3)?
Its value is “bacteriostatic”.

And the “Frequency of Resistance 4× MIC” value (P. aeruginosa [5]; P. aeruginosa ATCC 27853, 4× MIC)?
Its value is 7.2 × 10^−4.

And the “Frequency of Resistance 8× MIC” value (P. aeruginosa [5]; P. aeruginosa ATCC 27853, 8× MIC)?
Its value is 1.1 × 10^−5.

What about the “Frequency of Resistance 16× MIC” value (P. aeruginosa [5]; P. aeruginosa ATCC 27853, 16× MIC) of the same molecule?
The value was 7.2 × 10^−5.

What about the “Frequency of Resistance 4× MIC” value (P. aeruginosa [5]; P. aeruginosa C002, 4× MIC) of the same molecule?
The value was 6.5 × 10^−3.

And the “Frequency of Resistance 8× MIC” value (P. aeruginosa [5]; P. aeruginosa C002, 8× MIC)?
Its value is 1.1 × 10^−4.

What about the “Frequency of Resistance 16× MIC” value (P. aeruginosa [5]; P. aeruginosa C002, 16× MIC) of the same molecule?
Its value is 4.6 × 10^−4.

And the “Frequency of Resistance 4× MIC” value (P. aeruginosa [5]; P. aeruginosa C003, 4× MIC)?
Its value is 1.1 × 10^−6.

What about the “Frequency of Resistance 8× MIC” value (P. aeruginosa [5]; P. aeruginosa C003, 8× MIC) of the same molecule?
Its value is 9.0 × 10^−5.

What about the “Frequency of Resistance 16× MIC” value (P. aeruginosa [5]; P. aeruginosa C003, 16× MIC) of the same molecule?
The value was 1.3 × 10^−4.

What about the “Frequency of Resistance 4× MIC” value (P. aeruginosa [5]; P. aeruginosa C013, 4× MIC) of the same molecule?
Its value is 9.2 × 10^−3.

And the “Frequency of Resistance 8× MIC” value (P. aeruginosa [5]; P. aeruginosa C013, 8× MIC)?
Its value is 1.3 × 10^−5.

What about the “Frequency of Resistance 16× MIC” value (P. aeruginosa [5]; P. aeruginosa C013, 16× MIC) of the same molecule?
The value was 1.3 × 10^−7.

And the “Frequency of Resistance 4× MIC” value (P. aeruginosa [5]; P. aeruginosa C014, 4× MIC)?
Its value is 1.4 × 10^−4.

And the “Frequency of Resistance 8× MIC” value (P. aeruginosa [5]; P. aeruginosa C014, 8× MIC)?
The value was 1.3 × 10^−6.

What about the “Frequency of Resistance 16× MIC” value (P. aeruginosa [5]; P. aeruginosa C014, 16× MIC) of the same molecule?
The value was 1.8 × 10^−6.

What about the “time to 50% inhibition (T1/2) of protein synthesis” value ([6]; 6.4 μg/mL (FIG. 5)) of the same molecule?
Its value is 2.42 h.

What about the inhibition at 3.2 µg/mL ([6]; Pseudomonas aeruginosa, ATCC27853, 3.2 μg/mL, at 2 h relative to no-drug control, single experiment) of the same molecule?
Its inhibition at 3.2 µg/mL is 0%.

And the inhibition at 6.4 µg/mL ([6]; Pseudomonas aeruginosa, ATCC27853, 6.4 μg/mL, at 2 h relative to no-drug control, single experiment)?
Its inhibition at 6.4 µg/mL is 21%.

What about the inhibition at 12.8 µg/mL ([6]; Pseudomonas aeruginosa, ATCC27853, 12.8 μg/mL, at 2 h relative to no-drug control, single experiment) of the same molecule?
Its inhibition at 12.8 µg/mL is 9%.
